From patent US9663536B2, “Inhibitors of human immunodeficiency virus replication” (priority 2013, dated 2017)

Test system: recombinant NL-Rluc virus
Experiment: Inhibition of HIV replication (NL-Rluc virus in MT-2 cells, luciferase readout)
Type: cell-based
Settings: Human immunodeficiency virus 1, MT2, 120 h

| Compound | EC50 [nM] |
| --- | --- |
| Cc1nc2cc3nn2c(c1[C@H](OC(C)(C)C)C(=O)O)N1CCC(C)(CC/C=C/COc2ccccc2Cn2cc-3cn2)CC1 [Example 41] | 3 |
| Cc1nc2cc3nn2c(c1[C@H](OC(C)(C)C)C(=O)O)N1CCC(C)(CC1)OCCCCOc1ccccc1Cc1cnn-3c1 [Example 25, (2S)-2-(tert-Butoxy)-2-{4,27-dimethyl-21,26-dioxa-1,5,7,8,10,11-hexaazahexacyclo[25.2.2.1^6,9.1^10,13.0^2,7.0^15,20]tritriaconta-2,4,6(33),8,11,13(32),15(20),16,18-nonaen-3-yl}acetic acid] | 5 |
| Cc1nc2cc3nn2c(c1[C@H](OC(C)(C)C)C(=O)O)N1CCC(C)(CCCCCCc2ccccc2Cc2cnc-3s2)CC1 [Example 14, (2S)-2-(tert-Butoxy)-2-{4,27-dimethyl-32-thia-1,5,7,8,11-pentaazahexacyclo[25.2.2.1^6,9.1^10,13.0^2,7.0^15,20]tritriaconta-2,4,6(33),8,10,12,15(20),16,18-nonaen-3-yl}acetic acid] | 41 |
| Cc1nc2cc3nn2c(c1[C@H](OC(C)(C)C)C(=O)O)N1CCC(C)(CCCCCCOc2ccccc2Cc2cnn-3c2)CC1 [Example 36, (2S)-2-(tert-Butoxy)-2-{4,28-dimethyl-21-oxa-1,5,7,8,10,11-hexaazahexacyclo[26.2.2.1^6,9.1^10,13.0^2,7.0^15,20]tetratriaconta-2,4,6(34),8,11,13(33),15(20),16,18-nonaen-3-yl}acetic acid] | 14 |
| Cc1nc2cc3nn2c(c1[C@H](OC(C)(C)C)C(=O)O)N1CCC(C)(/C=C/C=C/CCc2ccccc2Cc2cnc-3s2)CC1 [Example 12, (2S)-2-(tert-Butoxy)-2-[(23E,25E)-4,27-dimethyl-32-thia-1,5,7,8,11-pentaazahexacyclo[25.2.2.1^6,9.1^10,13.0^2,7.0^15,20]tritriaconta-2,4,6(33),8,10,12,15(20),16,18,23,25-undecaen-3-yl]acetic acid] | 8 |
| Cc1nc2cc3nn2c(c1[C@H](OC(C)(C)C)C(=O)O)N1CCC(C)(CC/C=C\CCOc2ccccc2Cc2cnn-3c2)CC1 [Example 35, (2S)-2-(tert-Butoxy)-2-[(24Z)-4,28-dimethyl-21-oxa-1,5,7,8,10,11-hexaazahexacyclo[26.2.2.1^6,9.1^10,13.0^2,7.0^15,20]tetratriaconta-2,4,6(34),8,11,13(33),15(20),16,18,24-decaen-3-yl]acetic acid] | 20 |
| Cc1nc2cc3nn2c(c1[C@H](OC(C)(C)C)C(=O)O)N1CCC(C)(CC/C=C/CCc2ccc(F)cc2Cc2cnc-3s2)CC1 (single isomer, unassigned) [Example 21] | 13 |
| Cc1nc2cc3nn2c(c1[C@H](OC(C)(C)C)C(=O)O)N1CCC(C)(CC/C=C/C[C@@H](C)Oc2cc(F)ccc2Cc2cnc-3s2)CC1 [Example 19, (2S)-2-(tert-Butoxy)-2-[(22R,24E)-18-fluoro-4,22,28-trimethyl-21-oxa-33-thia-1,5,7,8,11-pentaazahexacyclo[26.2.2.1^6,9.1^10,13.0^2,7.0^15,20]tetratriaconta-2,4,6(34),8,10,12,15(20),16,18,24-decaen-3-yl]acetic acid] | 17 |
| Cc1nc2cc3nn2c(c1[C@H](OC(C)(C)C)C(=O)O)N1CCC(C)(CC1)OC/C=C/Cc1ccccc1Cc1cnc-3s1 (single isomer, unassigned) [Example 1] | 2 |
| Cc1nc2cc3nn2c(c1[C@H](OC(C)(C)C)C(=O)O)N1CCC(C)(CC/C=C/COc2cccc(c2)Cc2cnn-3c2)CC1 [Example 37] | 3 |
| Cc1nc2cc3nn2c(c1[C@H](OC(C)(C)C)C(=O)O)N1CCC(C)(CC1)OCCCCCOc1ccccc1Cc1cnc-3s1 [Example 9, (2S)-2-(tert-Butoxy)-2-{4,28-dimethyl-21,27-dioxa-33-thia-1,5,7,8,11-pentaazahexacyclo[26.2.2.1^6,9.1^10,13.0^2,7.0^15,20]tetratriaconta-2,4,6(34),8,10,12,15(20),16,18-nonaen-3-yl}acetic acid] | 2 |
| Cc1nc2cc3nn2c(c1[C@H](OC(C)(C)C)C(=O)O)N1CCC(C)(CCCCCOc2cccc(c2)Cc2cnn-3c2)CC1 [Example 39, (2S)-2-(tert-Butoxy)-2-{4,26-dimethyl-20-oxa-1,5,7,8,10,11-hexaazahexacyclo[24.2.2.1^6,9.1^10,13.1^15,19.0^2,7]tritriaconta-2,4,6(33),8,11,13(32),15(31),16,18-nonaen-3-yl}acetic acid] | 6 |
| Cc1nc2cc3nn2c(c1[C@H](OC(C)(C)C)C(=O)O)N1CCC(C)(CC1)OCC=CCOc1ccccc1Cc1cnc-3s1 [Example 7, (2S)-2-(tert-Butoxy)-2-[4,27-dimethyl-21,26-dioxa-32-thia-1,5,7,8,11-pentaazahexacyclo[25.2.2.1^6,9.1^10,13.0^2,7.0^15,20]tritriaconta-2,4,6(33),8,10,12,15(20),16,18,23-decaen-3-yl]acetic acid] | 6 |
| Cc1nc2cc3nn2c(c1[C@H](OC(C)(C)C)C(=O)O)N1CCC(C)(/C=C/CCCCc2cc(F)ccc2Cc2cnc-3s2)CC1 (single isomer, unassigned) [Example 15] | 13 |
| Cc1nc2cc3nn2c(c1[C@H](OC(C)(C)C)C(=O)O)N1CCC(C)(CC1)OC/C=C/CCOc1ccccc1Cc1cnc-3s1 [Example 8, (2S)-2-(tert-Butoxy)-2-[(24E)-4,28-dimethyl-21,27-dioxa-33-thia-1,5,7,8,11-pentaazahexacyclo[26.2.2.1^6,9.1^10,13.0^2,7.0^15,20]tetratriaconta-2,4,6(34),8,10,12,15(20),16,18,24-decaen-3-yl]acetic Acid] | 8 |
| Cc1nc2cc3nn2c(c1[C@H](OC(C)(C)C)C(=O)O)N1CCC(C)(CC/C=C\COc2cccc(c2)Cc2cnn-3c2)CC1 [Example 38] | 22 |
| Cc1nc2cc3nn2c(c1[C@H](OC(C)(C)C)C(=O)O)N1CCC(C)(CC1)OCCCCCc1cccc(c1)Cc1cnc-3s1 [Example 4, (2S)-2-(tert-Butoxy)-2-{4,26-dimethyl-25-oxa-32-thia-1,5,7,8,11-pentaazahexacyclo[24.2.2.1^6,9.1^10,13.1^15,19.0^2,7]tritriaconta-2,4,6(33),8,10,12,15(31),16,18-nonaen-3-yl}acetic acid] | 22 |
| Cc1nc2cc3nn2c(c1[C@H](OC(C)(C)C)C(=O)O)N1CCC(C)(CCCCCOc2ccccc2Cn2cc-3cn2)CC1 [Example 40, (2S)-2-(tert-Butoxy)-2-{4,27-dimethyl-21-oxa-1,5,7,8,12,13-hexaazahexacyclo[25.2.2.1^6,9.1^10,13.0^2,7.0^15,20]tritriaconta-2,4,6(33),8,10(32),11,15(20),16,18-nonaen-3-yl}acetic acid] | 4 |
| Cc1nc2cc3nn2c(c1[C@H](OC(C)(C)C)C(=O)O)N1CCC(C)(CC1)OC/C=C/COc1ccccc1Cc1cnn-3c1 [Example 26, (2S)-2-(tert-Butoxy)-2-[(23E)-4,27-dimethyl-21,26-dioxa-1,5,7,8,10,11-hexaazahexacyclo[25.2.2.1^6,9.1^10,13.0^2,7.0^15,20]tritriaconta-2,4,6(33),8,11,13(32),15(20),16,18,23-decaen-3-yl]acetic acid] | 2 |
| Cc1nc2cc3nn2c(c1[C@H](OC(C)(C)C)C(=O)O)N1CCC(C)(/C=C/CCCc2cc(F)ccc2Cc2cnc-3s2)CC1 (single isomer, unassigned) [Example 16] | 12 |
| Cc1nc2cc3nn2c(c1[C@H](OC(C)(C)C)C(=O)O)N1CCC(C)(CC1)OC/C=C/COc1ccc(F)cc1Cc1cnn-3c1 [Example 29, (2S)-2-(tert-Butoxy)-2-[(23E)-17-fluoro-4,27-dimethyl-21,26-dioxa-1,5,7,8,10,11-hexaazahexacyclo[25.2.2.1^6,9.1^10,13.0^2,7.0^15,20]tritriaconta-2,4,6(33),8,11,13(32),15(20),16,18,23-decaen-3-yl]acetic acid] | 2 |
| Cc1nc2cc3nn2c(c1[C@H](OC(C)(C)C)C(=O)O)N1CCC(C)(CC1)OCCCC[C@@H](C)Oc1ccccc1Cc1cnc-3s1 [Example 11] | 3 |
| Cc1nc2cc3nn2c(c1[C@H](OC(C)(C)C)C(=O)O)N1CCC(C)(CC1)OC/C=C\CCOc1ccccc1Cc1cnn-3c1 [Example 32, (2S)-2-(tert-butoxy)-2-[(24Z)-4,28-dimethyl-21,27-dioxa-1,5,7,8,10,11-hexaazahexacyclo[26.2.2.1^6,9.1^10,13.0^2,7.0^15,20]tetratriaconta-2,4,6(34),8,11,13(33),15(20),16,18,24-decaen-3-yl]acetic acid] | 6 |
| Cc1nc2cc3nn2c(c1[C@H](OC(C)(C)C)C(=O)O)N1CCC(C)(CC1)OCCCCOc1ccccc1Cc1cnc-3s1 [Example 5, (2S)-2-(tert-Butoxy)-2-{4,27-dimethyl-21,26-dioxa-32-thia-1,5,7,8,11-pentaazahexacyclo[25.2.2.1^6,9.1^10,13.0^2,7.0^15,20]tritriaconta-2,4,6(33),8,10,12,15(20),16,18-nonaen-3-yl}Acetic Acid] | 6 |
| Cc1nc2cc3nn2c(c1[C@H](OC(C)(C)C)C(=O)O)N1CCC(C)(C/C=C/CCc2ccc(F)cc2Cc2cnc-3s2)CC1 (single isomer, unassigned) [Example 23] | 7 |
| Cc1nc2cc3nn2c(c1[C@H](OC(C)(C)C)C(=O)O)N1CCC(C)(CC/C=C\CCc2ccc(F)cc2Cc2cnc-3s2)CC1 (single isomer, unassigned) [Example 22] | 35 |
| Cc1nc2cc3nn2c(c1[C@H](OC(C)(C)C)C(=O)O)N1CCC(C)(CC1)OC/C=C/CCc1cccc(c1)Cc1cnc-3s1 [Example 3, (2S)-2-(tert-Butoxy)-2-[(22E)-4,26-dimethyl-25-oxa-32-thia-1,5,7,8,11-pentaazahexacyclo[24.2.2.1^6,9.1^10,13.1^15,19.0^2,7]tritriaconta-2,4,6(33),8,10,12,15(31),16,18,22-decaen-3-yl]acetic acid] | 3 |
| Cc1nc2cc3nn2c(c1[C@H](OC(C)(C)C)C(=O)O)N1CCC(C)(CC1)OC/C=C/COc1ccccc1Cc1cnc-3o1 [Example 10, (2S)-2-(tert-Butoxy)-2-[(23E)-4,27-dimethyl-21,26,32-trioxa-1,5,7,8,11-pentaazahexacyclo[25.2.2.1^6,9.1^10,13.0^2,7.0^15,20]tritriaconta-2,4,6(33),8,10,12,15 (20),16,18,23-decaen-3-yl]acetic acid] | 2 |
